Here are results for one compound from patent US20200129450A1, “COMPOSITION COMPRISING OSMUNDACETONE OR PHARMACEUTICALLY ACCEPTABLE SALT THEREOF FOR PREVENTING OR TREATING BONE DISEASE” (KORPHARM CO., LTD., priority 2016, published 2020).

“Also recorded” adds a separate entry of the source. Some results are limits rather than exact numbers.

In general, IC50 refers to the concentration at which inhibition is half-maximal. A higher IC50 goes with lower potency. One may read the inhibition as the share of the control response that was lost under treatment.

Format in all cases: cell-based
A short description of data set [1]: MTT assay cytotoxicity, cancer cell lines (summary). The conditions noted are these: human cancer cell lines (AGS, PC3) compared with human normal cell lines (HaCaT, ADMSC); read-out: cancer selectivity index in cell cytotoxicity. On the procedure: (§1) MTT assay was as follows.
(§2) Cells were incubated at 1×10^3 cells/well in a 96-well plate containing DMEM with 10% fetal bovine serum (FBS) at 5% CO2 and 37° C., and then osmundacetone was added to the cell medium, followed by incubation for 24 hours. Thereafter, 100 μL of MTT (0.5 mg/ml PBS) was administered, followed by incubation for 2 hours. Thereafter, the medium was removed from each well, and 100 μL of DMSO was added. After incubation for 10 minutes, the absorbance was measured using a microplate reader (SPCTRA MAX 340PC, Molecular Devices, USA) at 570 nm. The absorbance is an indicator showing the number of living cells, and calculated by the following equation.
(§3) Cell proliferation (%)=OD550(sample)/OD550(control)
For orientation: Tetrazolium dyes change colour on reduction, which living cells bring about.

The test system of the next data set is cancer cell lines. The data set is described as above. The conditions noted are these: summary range. On the procedure:
as §1, §2, §3

Data set [2] concerns PC3 human prostate adenocarcinoma. The data set can be described thus: MTT assay cytotoxicity. The conditions noted are these: PC3, 24 hours. As to the method:
(§4) HaCaT human epidermal keratinocytes, # ATCC PCS-200-011) were incubated using Dulbecco's modified Eagle's medium (DMEM, # DMEM-HPA, Capricorn Scientific, Ebsdorfergrund, Germany) in the conditions of 37° C. and 5% CO2. NIH3T3 mouse embryo fibroblasts (# KCLB 21658), RAW264.7 murine macrophages (preosteoclast cell line, # KCLB 40071), HCT116 human colon cancer cells (# KCLB 10247), PC3 human prostate adenocarcinoma cells (# KCLB 21435), HT1080 human fibrosarcoma cells (# KCLB 1121), and B16F10 mouse malignant melanoma cells (# KCLB 80008) were purchased from the Korean Cell Line Bank, and incubated using DMEM in the conditions of 37° C. and 5% C02.
(§5) The compound isolated from Osmunda japonica, prepared in section 1 of <Example 1>, was investigated for cytotoxicity using MTT assay.
as §1
as §2, with “equation. The reproducibility thereof was validated by three experiments.” for “equation.”
as §3

Data set [3] relates to RAW264.7 mouse macrophage cell line. The data set can be described thus: MTT assay cytotoxicity. The settings on record: RAW264.7, 24 hours. As to the method: as §4, §5, §1
as §2, with “equation. The reproducibility thereof was validated by three experiments.” for “equation.”
as §3

Data set [4] deals with osteoclasts differentiated from mouse bone marrow cells. Description: TRAP assay, osteoclast proliferation and differentiation inhibitory activity. The conditions noted are these: for IC50: tested at 1, 4, 7 and 10 μM, TRAP-positive multinucleated cells. As to the method:
Bone marrow cells were collected from the femur and shin bones of 5-8 week old male C57BL/6 mice. Muscles were removed from the bones, and stored in cold phosphate buffered saline (PBS; # CAP08-050, GenDEPOT, Katy, Tex., USA).
Both ends of each bone were cut, and the bone marrow was flushed with a flushing medium (serum-free α-MEM, 2 mM ethylenediaminetetraacetic acid) kept cool, using a 25 G needle.
Bone marrow cells were collected by centrifugation at 3,000 rpm for 3 min using Labogene 1248R (Labogene, Lynge, Denmark), and then resuspended in a wash medium. Thereafter, 8 mL of the collected bone marrow cells were overlaid on 6 mL of a lymphocyte isolation medium (LSM; #50494, MP Biomedicals, Santa Ana, Calif., USA), followed by centrifugation at 1,600 rpm for 20 minutes, thereby isolating mononuclear cells.
The mononuclear cell bands were collected from the media interface, and incubated using complete α-MEM (containing 10% fatal bovine serum (FBS; Capricorn Scientific, Ebsdorfergrund, Germany) and 1% (v/v) antibiotic (including 100 U/mL penicillin G and […] streptomycin)) in the conditions of 37° C. and 5% CO2 while the medium was exchanged every three days.
In order to promote the differentiation of osteoclasts, 1×10^5 cells were incubated in 0.5 mL of the medium per well in a 48-well plate, in the presence of osteoclast differentiation factors, M-CSF (60 ng/mL) and RANKL (150 ng/mL), purchased from PeproTec (Seoul, Korea). As known, macrophages/monocytes derived from one bone marrow differentiated into mature multinucleated osteoclasts after 6 days (Gurt et al., 2015).
The tibia and femur of 6-8 week old male C57BL/6 mice were aseptically resected, and bone marrow cells were aseptically collected using a syringe (21 G, Korea Green Cross). The bone marrow cells were floated in 500 μL of α-MEM medium (Gibco BRL Co.) containing sodium bicarbonate (2.0 g/L), streptomycin (100 mg/L), and penicillin ([…]), dispensed in a 48-well plate, and assayed in triplicate. Mononuclear cells as precursor cells of osteoclasts were treated with RANKL and M-CSF as differentiation promoting factors, and thus differentiated into osteoclasts within 5-7 days.
2-1) Sample preparation: The hot-water extract, EA extract, or fraction of Osmunda japonica were prepared by the same methods as in section 1 of <Example 1>. The EA-2 extract was dissolved in a minimum amount of DMSO, and then diluted with water to 70% of the original volume of the hot-water extract assuming that the yield of EA-2 extraction was approximately 70%. 2-2) Sample administration: The sample was continuously administered to a medium at 1:20 (v/v; 25 μL of the sample per 500 μL of the medium) from day 1 of incubation of bone marrow cells, while the medium was exchanged every 2-3 days. 2-3) Measurement of osteoclast differentiation Osteoclasts were defined by TRAP-positive multinucleated cells stained with TRAP. As for TRAP stain solution, 5 mg of naphthol AS-MS phosphate (Sigma N-4875) as a base and 25 mg of Fast Red Violet LB salt as a color developing reagent were dissolved in about 0.5 mL of N,N-dimethylformamide, and then mixed with 0.1N NaHCO3 buffer solution (50 mL) containing 50 mM tartaric acid. The reaction reagent was stored in a refrigerator before use.
After bone marrow cells were incubated in a medium containing differentiation promoting factors for 7 days, the medium was removed, and the cells were washed with PBS, and then immobilized with PBS containing 10% formalin for 2-5 minutes. Thereafter, the cells were immobilized with a 1:1 mixture solution of ethanol and acetone, followed by drying. The immobilized cells were treated with the TRAP stain solution for 15 minutes, and washed with PBS, and then the degree of cell staining was observed by a microscope.
In the microscope field of view, cells having two or more nuclei in the TRAP-positive cells were determined to be osteoclasts, and the number of cells was measured. […]

For `CC(=O)/C=C/c1ccc(O)c(O)c1` [Osmundacetone, (3E)-4-(3,4-dihydroxyphenyl)-3-buten-2-one], in data set [1], the selectivity ratio at 24 h was 45 to 60. For the same compound, in the data set with cancer cell lines, the “LD50 for several cancer cell lines” value fell in the range of 50 to 70 µM. Besides, the “LD50 (MTT assay)” value in data set [2] was determined as 65.5 ± 8.7 µM; in data set [3], 507 ± 98 µM. Also, in data set [4] (1 μM), the “formation of giant osteoclasts, number compared with the positive control group” value is recorded as “smaller compared with the positive control group”. Further, the “formation of giant osteoclasts / differentiation of bone marrow mononuclear cells into osteoclasts” value in data set [4] (10 μM osmundacetone (printed 10M)) is recorded as “significantly inhibited; also recorded: almost completely inhibited”. For the same compound, the half-inhibitory concentration (IC50) in data set [4] (Mus musculus, Osteoclast) is no more than 8 µM; in data set [4] it was 8 µM. The inhibition at 7 µM in data set [4] (Mus musculus, Osteoclast, 7 μM, read-out: inhibition of differentiation of bone marrow mononuclear cells into osteoclasts) lay in the range of 3 to 40%. In addition, the inhibition at 10 µM in data set [4] (Mus musculus, Osteoclast, 10 μM, read-out: inhibition of differentiation of bone marrow mononuclear cells into osteoclasts) was no less than 95%. The “proliferation of osteoclast precursor cells” value in data set [4] (osmundacetone 10M as printed) was “significantly inhibited”.
